Experimental data: the supplement of paper PMC10307832

What was measured:
Test in all cases: relative viability (nuclei count vs DMSO), 5 days (fraction); higher = more cells survive
[1] = system: NCI-H2228
How it was run: (§1)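 Lung cancer cell lines in 1536-well plates were dosed by pin tool the day after seeding, either with one drug alone or with a fixed anchor-drug dose plus five library-drug doses (not always all listed) in √10 steps. After 5 days, cells were fixed and their nuclei stained in one step (final 0.05% Triton X-100, 1% formaldehyde, 1 ug/ml Hoechst), then counted on 4× images. Relative viability is the nuclei count in treated wells divided by that in vehicle wells. Values are medians of duplicate plates.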

[2] = system: NCI-H1993
How it was run: as §1

[3] = system: PC-3 [JPC-3]
How it was run: as §1

[4] = system: HOP-62
How it was run: as §1

[5] = system: LU99A
How it was run: as §1

[6] = system: COR-L23
How it was run: as §1

[7] = system: NCI-H596
How it was run: as §1

[8] = system: HARA
How it was run: as §1

[9] = system: NCI-H1792
How it was run: as §1

[10] = system: A-427
How it was run: as §1

[11] = system: NCI-H2009
How it was run: as §1

[12] = system: NCI-H727
How it was run: as §1

[13] = system: ABC-1
How it was run: as §1

[14] = system: SW 1573
How it was run: as §1

[15] = system: NCI-H3122
How it was run: as §1

[16] = system: EMC-BAC-2
How it was run: as §1

[17] = system: LXF-289
How it was run: as §1

[18] = system: SK-LU-1
How it was run: as §1

[19] = system: SK-MES-1
How it was run: as §1

[20] = system: NCI-H2170
How it was run: as §1

[21] = system: NCI-H1944
How it was run: as §1

[22] = system: NCI-H1793
How it was run: as §1

[23] = system: LK-2
How it was run: as §1

C[C@@H]1CN(CC(=O)Nc2ccc3c(c2)Cc2cccc(-c4cc(=O)cc(N5CCOCC5)o4)c2S3)C[C@H](C)O1 + CC(C)C[C@H](NC(=O)[C@H](Cc1ccccc1)NC(=O)c1cnccn1)B(O)O [Bortezomib] (partner 0.002 µM)
relative viability ([1]; first compound 0.04 µM): 0.932 | relative viability ([1]; first compound 0.1265 µM): 0.877 | relative viability ([1]; first compound 0.4 µM): 0.821 | relative viability ([1]; first compound 4 µM): 0.523 | relative viability ([2]; first compound 0.04 µM): 1.12 | relative viability ([2]; first compound 0.1265 µM): 1.08 | relative viability ([2]; first compound 0.4 µM): 0.763 | relative viability ([2]; first compound 4 µM): 1.01 | relative viability ([3]; first compound 0.04 µM): 0.861 | relative viability ([3]; first compound 0.1265 µM): 0.771 | relative viability ([3]; first compound 0.4 µM): 0.908 | relative viability ([3]; first compound 4 µM): 0.677 | relative viability ([4]; first compound 0.04 µM): 0.677 | relative viability ([4]; first compound 0.1265 µM): 0.548 | relative viability ([4]; first compound 0.4 µM): 0.755 | relative viability ([4]; first compound 4 µM): 1.02 | relative viability ([5]; first compound 0.04 µM): 1.11 | relative viability ([5]; first compound 0.1265 µM): 1.15 | relative viability ([5]; first compound 0.4 µM): 1.11 | relative viability ([5]; first compound 4 µM): 1.1 | relative viability ([6]; first compound 0.04 µM): 0.975 | relative viability ([6]; first compound 0.1265 µM): 0.996 | relative viability ([6]; first compound 0.4 µM): 0.984 | relative viability ([6]; first compound 4 µM): 0.795 | relative viability ([7]; first compound 0.04 µM): 0.937 | relative viability ([7]; first compound 0.1265 µM): 1.12 | relative viability ([7]; first compound 0.4 µM): 1.01 | relative viability ([7]; first compound 4 µM): 0.923 | relative viability ([8]; first compound 0.04 µM): 1.14 | relative viability ([8]; first compound 0.1265 µM): 1.15 | relative viability ([8]; first compound 0.4 µM): 1.09 | relative viability ([8]; first compound 4 µM): 1.05 | relative viability ([9]; first compound 0.04 µM): 0.939 | relative viability ([9]; first compound 0.1265 µM): 0.913 | relative viability ([9]; first compound 0.4 µM): 0.924 | relative viability ([9]; first compound 4 µM): 0.859 | relative viability ([10]; first compound 0.04 µM): 1.02 | relative viability ([10]; first compound 0.1265 µM): 0.993 | relative viability ([10]; first compound 0.4 µM): 0.952 | relative viability ([10]; first compound 4 µM): 1.03 | relative viability ([11]; first compound 0.04 µM): 0.982 | relative viability ([11]; first compound 0.1265 µM): 1.01 | relative viability ([11]; first compound 0.4 µM): 0.933 | relative viability ([11]; first compound 4 µM): 0.714 | relative viability ([12]; first compound 0.04 µM): 0.892 | relative viability ([12]; first compound 0.1265 µM): 0.824 | relative viability ([12]; first compound 0.4 µM): 0.804 | relative viability ([12]; first compound 4 µM): 0.878 | relative viability ([13]; first compound 0.1265 µM): 0.3 | relative viability ([13]; first compound 0.4 µM): 0.304 | relative viability ([13]; first compound 4 µM): 0.265 | relative viability ([14]; first compound 0.04 µM): 1.17 | relative viability ([14]; first compound 0.1265 µM): 1.15 | relative viability ([14]; first compound 0.4 µM): 0.926 | relative viability ([14]; first compound 4 µM): 0.976 | relative viability ([15]; first compound 0.04 µM): 1.06 | relative viability ([15]; first compound 0.1265 µM): 0.977 | relative viability ([15]; first compound 0.4 µM): 1.02 | relative viability ([15]; first compound 4 µM): 0.969 | relative viability ([16]; first compound 0.04 µM): 1.07 | relative viability ([16]; first compound 0.1265 µM): 1.1 | relative viability ([16]; first compound 0.4 µM): 1.06 | relative viability ([16]; first compound 4 µM): 0.985 | relative viability ([17]; first compound 0.04 µM): 0.996 | relative viability ([17]; first compound 0.1265 µM): 0.977 | relative viability ([17]; first compound 0.4 µM): 1.02 | relative viability ([17]; first compound 4 µM): 0.999 | relative viability ([18]; first compound 0.04 µM): 1.17 | relative viability ([18]; first compound 0.1265 µM): 1.43 | relative viability ([18]; first compound 0.4 µM): 1.09 | relative viability ([18]; first compound 4 µM): 1.13

CC(C)Oc1cc(Nc2nc(N[C@@H](C)c3ccc(F)cn3)ncc2Cl)n[nH]1 [AZ23] + CC1(C)CCC(c2ccc(Cl)cc2)=C(CN2CCN(c3ccc(C(=O)NS(=O)(=O)c4ccc(N[C@H](CCN5CCOCC5)CSc5ccccc5)c(S(=O)(=O)C(F)(F)F)c4)cc3)CC2)C1 [Navitoclax] (partner 0.5 µM)
relative viability ([1]; first compound 0.01 µM): 0.848 | relative viability ([1]; first compound 0.03162 µM): 0.963 | relative viability ([1]; first compound 0.3162 µM): 0.709 | relative viability ([2]; first compound 0.01 µM): 0.688 | relative viability ([2]; first compound 0.3162 µM): 0.916 | relative viability ([3]; first compound 0.01 µM): 0.881 | relative viability ([3]; first compound 0.03162 µM): 0.863 | relative viability ([3]; first compound 0.3162 µM): 0.762 | relative viability ([4]; first compound 0.01 µM): 0.94 | relative viability ([4]; first compound 0.03162 µM): 1.21 | relative viability ([4]; first compound 0.3162 µM): 1.18 | relative viability ([5]; first compound 0.01 µM): 0.758 | relative viability ([5]; first compound 0.03162 µM): 0.82 | relative viability ([5]; first compound 0.3162 µM): 0.701 | relative viability ([6]; first compound 0.01 µM): 0.839 | relative viability ([6]; first compound 0.03162 µM): 1.11 | relative viability ([6]; first compound 0.3162 µM): 1.05 | relative viability ([7]; first compound 0.01 µM): 0.854 | relative viability ([7]; first compound 0.03162 µM): 1.04 | relative viability ([7]; first compound 0.3162 µM): 0.747 | relative viability ([8]; first compound 0.01 µM): 0.973 | relative viability ([8]; first compound 0.03162 µM): 1.16 | relative viability ([8]; first compound 0.3162 µM): 1.16 | relative viability ([9]; first compound 0.01 µM): 0.763 | relative viability ([9]; first compound 0.03162 µM): 0.858 | relative viability ([9]; first compound 0.3162 µM): 0.693 | relative viability ([10]; first compound 0.01 µM): 0.941 | relative viability ([10]; first compound 0.03162 µM): 1.06 | relative viability ([10]; first compound 0.3162 µM): 0.864 | relative viability ([11]; first compound 0.01 µM): 1.16 | relative viability ([11]; first compound 0.03162 µM): 1.18 | relative viability ([11]; first compound 0.3162 µM): 1.19 | relative viability ([12]; first compound 0.01 µM): 0.382 | relative viability ([12]; first compound 0.03162 µM): 0.506 | relative viability ([12]; first compound 0.3162 µM): 0.385 | relative viability ([19]; first compound 0.01 µM): 1.4 | relative viability ([19]; first compound 0.03162 µM): 1.42 | relative viability ([19]; first compound 0.3162 µM): 1.33 | relative viability ([20]; first compound 0.01 µM): 0.59 | relative viability ([20]; first compound 0.03162 µM): 0.687 | relative viability ([20]; first compound 0.3162 µM): 0.589 | relative viability ([14]; first compound 0.01 µM): 0.991 | relative viability ([14]; first compound 0.03162 µM): 0.952 | relative viability ([14]; first compound 0.3162 µM): 0.833 | relative viability ([21]; first compound 0.01 µM): 0.985 | relative viability ([21]; first compound 0.03162 µM): 1.07 | relative viability ([21]; first compound 0.3162 µM): 1.01 | relative viability ([15]; first compound 0.01 µM): 1.11 | relative viability ([15]; first compound 0.03162 µM): 1.02 | relative viability ([15]; first compound 0.3162 µM): 1.08 | relative viability ([16]; first compound 0.01 µM): 1.59 | relative viability ([16]; first compound 0.03162 µM): 1.25 | relative viability ([16]; first compound 0.3162 µM): 1.19 | relative viability ([22]; first compound 0.01 µM): 0.425 | relative viability ([22]; first compound 0.03162 µM): 0.302 | relative viability ([22]; first compound 0.3162 µM): 0.341 | relative viability ([23]; first compound 0.01 µM): 0.653 | relative viability ([23]; first compound 0.03162 µM): 0.915 | relative viability ([23]; first compound 0.3162 µM): 0.909 | relative viability ([17]; first compound 0.01 µM): 1.08 | relative viability ([17]; first compound 0.03162 µM): 0.951 | relative viability ([17]; first compound 0.3162 µM): 0.888 | relative viability ([18]; first compound 0.01 µM): 0.457 | relative viability ([18]; first compound 0.03162 µM): 1.38 | relative viability ([18]; first compound 0.3162 µM): 0.858
